Patent US11129829B2, “Methods for modulating splicing” (Skyhawk Therapeutics, Inc., priority 2019, dated 2021)

Assays:
Assay type in all cases: cell-based
FoxM1 A mRNA = assay: Splice EC50: FoxM1 A mRNA increase (exon excluded); details: read-out: Splice EC50 (nM)^B
FoxM1 BC mRNA = assay: Splice IC50: FoxM1 BC mRNA decrease (exon included); details: read-out: Splice IC50 (nM)^C
A-673 = A-673 cell viability
[1] = Homo sapiens, A673, Cell viability

SMILES	EC50 (FoxM1 A mRNA)	IC50 (FoxM1 BC mRNA)	IC50 (A-673; Cell viability)	IC50 (A-673; [1])
CN(c1ccc(-c2ccc(-n3nccn3)cc2O)nn1)[C@@H]1C[C@H]2CCC[C@@H](C1)N2 [compound 275, 2-(6-(((1R,3S,5S)-9-azabicyclo[3.3.1]nonan-3-yl)(methyl)amino)pyridazin-3-yl)-5-(2H-1,2,3-triazol-2-yl)phenol]	< 10 nM	< 10 nM	< 10 nM	–
Oc1cc(-c2cn[nH]c2)ccc1-c1ccc(O[C@@H]2C[C@H]3CCC[C@@H](C2)N3)nn1 [compound 277, 2-(6-(((1R,3R,5S)-9-azabicyclo[3.3.1]nonan-3-yl)oxy)pyridazin-3-yl)-5-(1H-pyrazol-4-yl)phenol]	> 1000 nM	> 1000 nM	> 1000 nM	–
CN(c1ccc(-c2ccc(-n3ccnn3)cc2O)nn1)[C@@H]1C[C@H]2CCC[C@@H](C1)N2 [compound 279, 2-(6-(((1R,3S,5S)-9-azabicyclo[3.3.1]nonan-3-yl)(methyl)amino)pyridazin-3-yl)-5-(1H-1,2,3-triazol-1-yl)phenol]	< 10 nM	< 10 nM	10 to 100 nM	–
[2H]C([2H])([2H])n1ncc(-c2ccc(-c3ccc(N(C)[C@@H]4C[C@H]5CCC[C@@H](C4)N5)nn3)c(O)c2)cc1=O [compound 281]	< 10 nM	< 10 nM	–	< 10 nM
[2H]C([2H])([2H])n1ccc(-c2ccc(-c3ccc(N(C)[C@@H]4C[C@H]5CCC[C@@H](C4)N5)nn3)c(O)c2)cc1=O [compound 284, 4-(4-(6-(((1R,3S,5S)-9-azabicyclo[3.3.1]nonan-3-yl)(methyl)amino)pyridazin-3-yl)-3-hydroxyphenyl)-1-(methyl-d3)pyridin-2(1H)-one]	> 1000 nM	< 10 nM	–	< 10 nM
